Reference: ChEMBL document CHEMBL4422621, “Novel chalcone and flavone derivatives as selective and dual inhibitors of the transport proteins ABCB1 and ABCG2” (Eur J Med Chem, 2019)

Key:
ABCG2 (BCRP) [1] = molecular target: T1, ABCG2 (BCRP) (Homo sapiens, UniProt Q9UNQ0); experiment: (§1) Inhibition of ABCG2 (unknown origin) expressed in MDCK II BCRP cells assessed as effect on heophorbide A accumulation at 5 to 10 uM after 120 mins by flow cytometric analysis relative to control; assay type: cell-based; settings: MDCK II BCRP cells expressing ABCG2, probe pheophorbide A
T1 sequence (Q9UNQ0 whole entry): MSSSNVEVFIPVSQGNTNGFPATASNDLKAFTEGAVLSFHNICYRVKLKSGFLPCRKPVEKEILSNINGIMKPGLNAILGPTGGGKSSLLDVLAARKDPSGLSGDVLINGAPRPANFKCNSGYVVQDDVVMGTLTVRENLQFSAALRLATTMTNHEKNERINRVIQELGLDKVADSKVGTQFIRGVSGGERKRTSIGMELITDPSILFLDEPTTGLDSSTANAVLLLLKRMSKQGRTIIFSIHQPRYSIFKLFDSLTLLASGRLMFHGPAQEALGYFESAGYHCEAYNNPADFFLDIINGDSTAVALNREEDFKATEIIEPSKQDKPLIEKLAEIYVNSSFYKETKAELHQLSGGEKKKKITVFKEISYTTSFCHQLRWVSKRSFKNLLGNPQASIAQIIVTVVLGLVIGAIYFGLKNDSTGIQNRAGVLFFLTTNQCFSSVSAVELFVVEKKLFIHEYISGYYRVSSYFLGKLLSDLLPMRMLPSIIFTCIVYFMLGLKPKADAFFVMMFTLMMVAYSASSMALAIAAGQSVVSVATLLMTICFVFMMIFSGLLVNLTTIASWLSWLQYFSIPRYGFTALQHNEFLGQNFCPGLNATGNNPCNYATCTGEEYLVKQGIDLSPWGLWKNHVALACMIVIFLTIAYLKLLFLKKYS

[2] = molecular target: T2, Broad substrate specificity ATP-binding cassette transporter ABCG2 (Homo sapiens, UniProt Q9UNQ0); experiment: Inhibition of ABCG2 (unknown origin) expressed in MDCK II BCRP cells assessed as effect on pheophorbide A accumulation after 120 mins by flow cytometric analysis; assay type: cell-based
T2 sequence (Q9UNQ0 whole entry): T1 sequence (Q9UNQ0 whole entry)

ABCG2 (BCRP) [3] = experiment: Therapeutic index, ratio of GI50 for MDCK2 cells expressing BCRP (unknown origin) to EC50 for ABCG2 (unknown origin) co-expressed in MDCK2 cells expressing BCRP (unknown origin); assay type: toxicity, cell-based; settings: dog
[4] = Growth inhibition of MDCK2 cells after 72 hrs by MTT assay; assay type: cell-based, Canis lupus familiaris, MDCK-II; settings: dog
[5] = molecular target: ATP-dependent translocase ABCB1 (Homo sapiens, UniProt P08183); experiment: (§2) Inhibition of ABCB1 in human A2780/ADR cells preincubated for 30 mins followed by calcein AM addition and measured every 60 secs for 1 hr by fluorescence assay; assay type: cell-based
Chain of ATP-dependent translocase ABCB1 (P08183 whole entry): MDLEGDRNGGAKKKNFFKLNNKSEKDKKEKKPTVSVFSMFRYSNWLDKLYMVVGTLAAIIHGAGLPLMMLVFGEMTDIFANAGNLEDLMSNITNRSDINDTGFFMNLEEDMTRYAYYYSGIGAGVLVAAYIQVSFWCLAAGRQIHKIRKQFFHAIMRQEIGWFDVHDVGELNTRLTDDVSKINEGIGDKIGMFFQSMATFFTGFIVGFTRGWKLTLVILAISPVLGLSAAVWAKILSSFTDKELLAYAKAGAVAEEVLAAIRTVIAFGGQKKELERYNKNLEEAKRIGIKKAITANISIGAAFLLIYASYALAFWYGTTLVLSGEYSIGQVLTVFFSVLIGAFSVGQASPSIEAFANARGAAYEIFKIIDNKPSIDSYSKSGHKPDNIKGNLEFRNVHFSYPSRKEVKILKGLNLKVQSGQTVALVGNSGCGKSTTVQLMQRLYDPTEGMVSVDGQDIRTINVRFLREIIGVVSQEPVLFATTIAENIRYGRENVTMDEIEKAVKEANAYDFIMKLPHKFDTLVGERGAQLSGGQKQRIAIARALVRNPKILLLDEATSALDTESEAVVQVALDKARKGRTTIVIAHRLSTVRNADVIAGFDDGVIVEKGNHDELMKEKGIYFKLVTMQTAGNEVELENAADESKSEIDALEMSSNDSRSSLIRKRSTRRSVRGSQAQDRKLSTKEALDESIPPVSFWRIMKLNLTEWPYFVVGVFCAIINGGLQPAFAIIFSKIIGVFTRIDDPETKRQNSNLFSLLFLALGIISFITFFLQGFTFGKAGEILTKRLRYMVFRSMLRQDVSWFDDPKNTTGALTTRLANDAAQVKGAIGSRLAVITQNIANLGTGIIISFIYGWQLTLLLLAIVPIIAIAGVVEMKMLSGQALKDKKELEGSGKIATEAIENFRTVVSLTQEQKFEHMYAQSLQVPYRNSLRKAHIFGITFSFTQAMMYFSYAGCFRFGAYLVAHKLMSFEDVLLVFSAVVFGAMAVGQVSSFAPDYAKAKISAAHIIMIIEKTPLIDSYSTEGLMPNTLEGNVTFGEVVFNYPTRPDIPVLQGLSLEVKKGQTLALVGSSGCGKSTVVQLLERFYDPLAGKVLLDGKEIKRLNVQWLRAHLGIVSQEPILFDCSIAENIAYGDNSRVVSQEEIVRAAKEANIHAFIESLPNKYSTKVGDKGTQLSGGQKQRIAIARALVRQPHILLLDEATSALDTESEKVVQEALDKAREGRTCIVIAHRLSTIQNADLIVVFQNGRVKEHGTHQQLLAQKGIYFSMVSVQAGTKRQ

ABCB1 (P-gp) [6] = molecular target: ABCB1 (P-gp) (Homo sapiens, UniProt P08183); experiment: as §2; assay type: cell-based; settings: human, A2780/ADR cells, probe calcein AM; read-out: Imax
Chain of ABCB1 (P-gp) (Homo sapiens, UniProt P08183) (P08183 whole entry): as above

[7] = Growth inhibition of MDCK2 cells expressing BCRP (unknown origin) after 72 hrs by MTT assay; assay type: ADME, cell-based, Canis lupus familiaris, MDCK-II; settings: dog
[8] = molecular target: Multidrug resistance-associated protein 1 (Homo sapiens, UniProt P33527); experiment: Inhibition of ABCC1 in human […] cells preincubated for 30 mins followed by calcein AM addition and measured every 60 secs for 1 hr by fluorescence assay; assay type: cell-based
Chain of Multidrug resistance-associated protein 1 (P33527 whole entry): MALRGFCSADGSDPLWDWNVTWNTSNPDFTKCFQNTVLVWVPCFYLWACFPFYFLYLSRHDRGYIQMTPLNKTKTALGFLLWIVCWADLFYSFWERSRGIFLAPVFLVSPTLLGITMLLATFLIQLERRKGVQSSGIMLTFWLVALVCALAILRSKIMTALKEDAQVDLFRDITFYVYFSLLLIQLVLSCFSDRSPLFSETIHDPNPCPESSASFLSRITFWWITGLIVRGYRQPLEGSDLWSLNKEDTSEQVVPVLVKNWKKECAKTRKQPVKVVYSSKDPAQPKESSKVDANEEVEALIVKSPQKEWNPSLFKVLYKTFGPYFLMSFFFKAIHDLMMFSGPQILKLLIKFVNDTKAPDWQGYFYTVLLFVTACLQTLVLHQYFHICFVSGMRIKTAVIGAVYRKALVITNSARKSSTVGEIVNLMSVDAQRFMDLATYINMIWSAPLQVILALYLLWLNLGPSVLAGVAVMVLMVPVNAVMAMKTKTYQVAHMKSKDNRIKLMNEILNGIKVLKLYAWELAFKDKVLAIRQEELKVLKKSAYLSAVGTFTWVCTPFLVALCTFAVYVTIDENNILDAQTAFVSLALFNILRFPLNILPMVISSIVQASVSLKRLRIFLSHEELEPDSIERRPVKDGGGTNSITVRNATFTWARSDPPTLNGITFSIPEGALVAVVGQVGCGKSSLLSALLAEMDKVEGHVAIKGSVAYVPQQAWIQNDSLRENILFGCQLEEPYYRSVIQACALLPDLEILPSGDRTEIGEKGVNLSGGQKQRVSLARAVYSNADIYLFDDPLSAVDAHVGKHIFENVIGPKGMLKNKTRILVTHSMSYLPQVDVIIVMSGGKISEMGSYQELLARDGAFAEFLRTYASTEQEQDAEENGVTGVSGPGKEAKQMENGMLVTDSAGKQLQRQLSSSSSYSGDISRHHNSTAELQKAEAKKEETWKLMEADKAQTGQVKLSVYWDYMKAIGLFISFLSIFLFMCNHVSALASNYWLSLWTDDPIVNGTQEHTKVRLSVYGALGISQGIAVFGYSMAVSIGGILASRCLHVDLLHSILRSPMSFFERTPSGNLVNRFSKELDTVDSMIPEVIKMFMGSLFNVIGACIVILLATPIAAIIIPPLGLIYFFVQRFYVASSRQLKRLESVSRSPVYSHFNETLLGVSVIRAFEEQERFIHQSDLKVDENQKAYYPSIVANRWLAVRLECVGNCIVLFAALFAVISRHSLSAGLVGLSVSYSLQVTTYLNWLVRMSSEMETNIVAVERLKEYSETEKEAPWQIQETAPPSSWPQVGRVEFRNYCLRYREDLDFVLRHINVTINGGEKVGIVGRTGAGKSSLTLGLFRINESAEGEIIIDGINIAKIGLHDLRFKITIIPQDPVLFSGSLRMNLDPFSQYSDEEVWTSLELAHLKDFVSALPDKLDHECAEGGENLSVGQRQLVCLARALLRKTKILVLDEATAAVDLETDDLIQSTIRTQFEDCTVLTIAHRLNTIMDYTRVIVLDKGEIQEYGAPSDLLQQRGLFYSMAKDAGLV

[9] = Growth inhibition of human A2780 cells after 72 hrs by MTT assay; assay type: cell-based
[10] = Growth inhibition of human A2780/ADR cells after 72 hrs by MTT assay; assay type: cell-based
ABCB1 (P-gp) [11] = experiment: Therapeutic index, ratio of GI50 for human A2780/ADR cells to EC50 for ABCB1 in human A2780/ADR cells; assay type: toxicity, cell-based
[12] = molecular target: T2, Broad substrate specificity ATP-binding cassette transporter ABCG2; experiment: as §1; assay type: cell-based; settings: 2 h

| Structure (SMILES) | inhibition at 2 h (ABCG2 (BCRP) [1]) | IC50 [2] | IC50 [5] | Emax at 1 h (ABCB1 (P-gp) [6]) | IC50 [8] | inhibition (INH) [12] | selectivity ratio (ABCG2 (BCRP) [3]) | GI50 at 72 h [4] | GI50 at 72 h [7] | GI50 at 72 h [9] | GI50 at 72 h [10] | selectivity ratio (ABCB1 (P-gp) [11]) |
| --- | --- | --- | --- | --- | --- | --- | --- | --- | --- | --- | --- | --- |
| COc1ccc(NC(=O)COc2ccc(C(=O)/C=C/c3cc(OC)c(OC)c(OC)c3)cc2)cc1OC | ≥ 25% | 3.37 µM | – | – | 12.5 µM | – | 8.2 | 18.9 µM | 27.7 µM | – | – | – |
| O=C(COc1c(-c2ccccc2Cl)oc2ccccc2c1=O)Nc1ccc2c(c1)COC2=O | ≥ 25% | 2.9 µM | 5.01 µM | – | – | – | 19.4 | 67.6 µM | 56.3 µM | 61.1 µM | 69.2 µM | 13.8 |
| COc1cc(/C=C/C(=O)c2cccc(OCC(=O)Nc3ccc4c(c3)COC4=O)c2)cc(OC)c1OC | ≥ 25% | 9.93 µM | 11.7 µM | – | – | – | – | – | – | – | – | – |

Continued, in another order:

| inhibition at 2 h (ABCG2 (BCRP) [1]) | IC50 [2] | IC50 [5] | Emax at 1 h (ABCB1 (P-gp) [6]) | IC50 [8] | inhibition (INH) [12] | Structure (SMILES) | selectivity ratio (ABCG2 (BCRP) [3]) | GI50 at 72 h [4] | GI50 at 72 h [7] | GI50 at 72 h [9] | GI50 at 72 h [10] | selectivity ratio (ABCB1 (P-gp) [11]) |
| --- | --- | --- | --- | --- | --- | --- | --- | --- | --- | --- | --- | --- |
| ≥ 25% | 5.09 µM | 1.41 µM | 51% | – | – | COc1ccc(-c2c(OCC(=O)Nc3cccc4ccccc34)oc3ccccc3c2=O)cc1 | > 19.6 | > 100 µM | > 100 µM | – | – | – |
| ≥ 25% | 3.75 µM | 5.43 µM | – | – | – | COc1ccc(-c2c(OCC(=O)Nc3cccc4ccccc34)oc3ccccc3c2=O)cc1OC | > 26.7 | > 100 µM | > 100 µM | 43.6 µM | 45.3 µM | 8.3 |
| – | – | 1.89 µM | – | – | Not Active | Cc1ccc(-c2c(OCC(=O)Nc3cccc4ccccc34)oc3ccccc3c2=O)cc1 | – | – | – | 68.7 µM | 98.6 µM | 52.2 |
